These results are taken from PubChem BioAssay (NCI).

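96-well plates; 48 h exposure; 5 concentrations. Endpoints by linear interpolation between flanking doses. Not reached: highest tested concentration assigned. The concentration for 50% growth inhibition is given as GI50. TGI denotes the concentration required for complete inhibition of growth.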

What all share (test): growth of human tumour cells (NCI), 48 h
Experiment [1] relates to EKVX NSCLC.
Experiment [2] has as its system HOP-62 NSCLC.
Experiment [3] deals with IGROV1 ovarian.
Experiment [4] concerns RXF 393 renal.
Experiment [5] deals with SR leukemia.
The test system of experiment [6] is UACC-62 melanoma.
Experiment [7] deals with SK-MEL-5 melanoma.
In experiment [8] the test system is SK-OV-3 ovarian.

Turning to `CCCCn1c(-c2ccccc2)cs/c1=N\N=C1C=C(C(C)(C)C)C(=O)C(C(C)(C)C)=C1`, the TGI in experiment [1], in experiment [2], in experiment [3], in experiment [4], in experiment [5] and in experiment [6] was greater than 100 µM each time.

Turning to `CC(=O)Nc1ccc(-c2nnc(SCC(=O)Nc3cccc(C)c3)o2)cc1`, the TGI was 73.2 µM in experiment [2]; 24.7 µM in experiment [3]; 25.9 µM in experiment [4]; 23.1 µM in experiment [7]; 81.5 µM in experiment [8]; greater than 100 µM in experiment [5]. In addition, the TGI in experiment [6] was found to be 20.9 µM.

With `O=C(NN1C(=O)C(Cl)C1c1cccc(O)c1)c1ccccc1O` (stereo not given), the TGI in experiment [3], in experiment [4], in experiment [7], in experiment [8] and in experiment [6] was greater than 100 µM throughout.

`CC1(CO)C(O)CCC2(C)C1CCC1CC3CC12CCC3(O)CO` (stereo not given): the TGI in experiment [1], in experiment [3], in experiment [4], in experiment [7], in experiment [8] and in experiment [6] was greater than 100 µM in each case.

As for `c1ccc2c(c1)nnn2CNc1ccc(N2CCCCC2)cc1`, the TGI in experiment [1], in experiment [2], in experiment [3], in experiment [4], in experiment [8] and in experiment [5] was greater than 100 µM in each case. Further, in experiment [6], the TGI was greater than 100 µM.

Regarding `O=C([CH-]C(=O)c1ccccc1)c1ccccc1.[C-]#[O+].[C-]#[O+].[Ir]`, the GI50 in experiment [1] was greater than 100 µM; in experiment [3], 88.3 µM; in experiment [4] it was 33.6 µM; in experiment [7], 39.3 µM; in experiment [8], greater than 100 µM; in experiment [6], 42.1 µM. Besides, the TGI in experiment [1], in experiment [3], in experiment [4], in experiment [7], in experiment [8] and in experiment [6] was greater than 100 µM each time.

On to `CCC(=O)OC1CCn2c1nc1c2C(=O)C(C)=C(NC(C)=O)C1=O` (stereo not given), for which the TGI in experiment [1] is 3.53 µM; in experiment [2], 24.1 µM; in experiment [3] it was 3.98 µM; in experiment [4], 3.11 µM; in experiment [7], 3.27 µM; in experiment [8], 11.4 µM. Besides, the TGI in experiment [5] turned out to be 5.66 µM; in experiment [6], 3.43 µM.

Take `O=c1oc2cc(O)ccc2c2[nH]c3cc(O)ccc3c12`: the TGI was 90.1 µM in experiment [1]; 59.6 µM in experiment [2]; 57.9 µM in experiment [3]; 47.5 µM in experiment [4]; 63.1 µM in experiment [8]; greater than 100 µM in experiment [5]. Also, the TGI in experiment [6] turned out to be 31.7 µM.

As for `N#C/C(=C\c1ccc(O)c(O)c1)c1c(C#N)c(N)nn1-c1ccccc1`, the TGI in experiment [1] was 69.7 µM; in experiment [2] it was 40.8 µM; in experiment [3], 14.5 µM; in experiment [7] it was 34.4 µM; in experiment [8], 36.5 µM; in experiment [6] it was greater than 100 µM.

As for `Cc1cc(N(CCC#N)S(=O)(=O)c2ccccc2)ccc1C=Nc1cccc(C(=O)O)c1`, the TGI in experiment [1], in experiment [2], in experiment [3], in experiment [4], in experiment [7] and in experiment [8] was greater than 100 µM each time. In experiment [6], the TGI is greater than 100 µM.

With `COc1ccc(CN(CCN(C)C)c2ccccn2)cc1` (tested in a mixture with another compound), the TGI in experiment [2], in experiment [3], in experiment [7] and in experiment [8] was greater than 100 µM each time.

Turning to `[N-]=[N+]=CC(=O)C1(C(=O)C=[N+]=[N-])CC1`, the TGI in experiment [1], in experiment [2], in experiment [3], in experiment [4], in experiment [7] and in experiment [8] was greater than 100 µM each time. The molecule also came in with a TGI in experiment [5] greater than 100 µM.

For `CCN(CC)CC1CCCCN1CC(=O)N1c2cc(Cl)ccc2NC(=O)CC1C` (stereo not given), the TGI in experiment [1], in experiment [2], in experiment [7], in experiment [8], in experiment [5] and in experiment [6] was greater than 100 µM each time.

For the molecule `CC1CC(=O)Nc2ccc(Cl)cc2N1C(=O)CN1CCC(CCCCN(C)C)CC1` (stereo not given), the TGI in experiment [2], in experiment [3], in experiment [7], in experiment [8], in experiment [5] and in experiment [6] was greater than 100 µM each time.

For `Cc1ccc(S(=O)(=O)NC(=O)C2S(=O)(=O)OCCOS2(=O)=O)cc1`, the TGI in experiment [1], in experiment [2], in experiment [7], in experiment [8], in experiment [5] and in experiment [6] was greater than 100 µM throughout.
